The values that follow come from PMC6598759, “In vitro genotoxicity of nitroimidazoles as a tool in the search of new trypanocidal agents” (Memórias do Instituto Oswaldo Cruz, 2019).

The test system of series [1] is bloodstream trypomastigotes form Y strain of T. cruzi. Briefly: In vitro trypanocidal assay. Type of series: cell-based. To be noted: Trypanosoma cruzi, read-out: IC50/24 h (concentration that produces 50% lysis of the parasites), trypomastigote forms, 37 °C. The protocol:
In vitro trypanocidal assay - To accomplishment of the experiments were used bloodstream trypomastigotes form Y strain of T. cruzi, obtained at the peak of the parasitemia (7th day after infection) of infected Swiss albino mice.[34] The trypomastigotes underwent a differential centrifugation process for the separation of erythrocytes, leukocytes and concentration of the parasites in the plasma, and the purified parasites were resuspended in RPMI medium and cell concentration was determined by counting in the Neubauer chamber. Stock solution of each compound was prepared in dimethyl sulfoxide (DMSO), and the assays were performed in Dulbecco’s modified Eagle medium in 96-well plates. In the first well was placed twice the highest desired concentration of each compound, in a final volume of 200 μL, in the following wells were added 100 μL of medium supplemented with 10% foetal bovine serum (FBS) and 2% L-glutamine. Subsequently, 100 μL of parasite suspension (10^6 trypomastigotes) were added, resulting in a final concentration of 5 x 10^6 parasites/mL, incubated for 24 h at 37 °C under a 5% CO2 atmosphere and quantified in Neubauer’s chamber by light microscopy. […] At least four independent experiments were performed and the mean and standard deviation were calculated. Benznidazole (1) was used as a reference drug. The experiments were performed in accordance with the guidelines established by the Oswaldo Cruz Foundation Committee of Ethics for the Use of Animals (L 038/2018).

Series [2] deals with Chagas disease. To be noted: cited from earlier work.
For series [3], the system named is whole human blood cells (WHBC). Briefly: Cytotoxicity assay (FDA/EtBr) in whole human blood cells. The following applies: for percentage decrease in cell viability: 2 h, 37 °C; for lethality variation range: 2 h at 37 °C, compared to solvent-control. How it is done:
In vitro treatment and cytotoxicity assay in whole human blood cells (WHBC) - Heparinised WHBC was obtained by venipuncture from healthy young non-smoking volunteers with no known recent exposures to genotoxic chemicals or radiation immediately before the assays. […] The cytotoxicity assay aims to establish the degree of cell viability after treatment with nitroimidazoles to define the ranges concentrations to be tested in the in vitro CA. Cell viability was determined at the end of the treatment using the fluorescein diacetate (FDA)/ethidium bromide (EtBr)-assay, in which viable cells are labelled in green, while dead ones display orange-stained nuclei. WHBC (50 μL) was mixed with an equal volume of the freshly prepared staining solution consisting of 30 μg/mL FDA plus 8 μg/mL EtBr in phosphate-buffered saline (PBS). Samples (50 μL) were spread on a microscope slide and covered with a coverslip and observed using a fluorescence microscope. Two hundred cells were analysed for each treatment.[32] The research project involving the use of human blood samples was approved by the Committee on Ethics in Research with Human Beings - CEP Fiocruz/IOC (CAAE: 41684815.3.0000.5248) under the consolidated opinion of CEP No. 1066061.

Series [4] deals with whole human blood cells (WHBC). Briefly: In vitro alkaline comet assay (CA) in whole human blood cells. It is filed as cell-based. The protocol:
Methyl methane-sulfonate (MMS) (160 μM) (Sigma-Aldrich) was used as a positive control. […] Slides were prepared, lysed (pH 10; 4-5 °C) and processed as described earlier,[32] using a time of alkali denaturation of 20 min and electrophoresis (0.86 V/cm and 300 mA) of 20 min at a pH > 13. […] The DNA damage was expressed as percentage of cells into four classes and as arbitrary units (AU) according to the formula: AU = (0 […] 3), where n = the number of cells analysed in each class. The total DNA damage score in AU (TAU) for 200 cells can range from 0 TAU (200 undamaged cells) to 600 TAU (all cells maximally damaged).

Series [5] relates to whole human blood cells (WHBC). As to the kind of experiment: In vitro cytokinesis-block micronucleus assay (CBMN) with whole human blood cells. The following applies: for MN formation compared to solvent-control: concentration range analysed; for result in the CBMN: overall call. How it is done:
In vitro cytokinesis-block micronucleus assay (CBMN) with whole human blood cells (WHBC) - Heparinised WHBC samples were obtained by venipuncture from volunteers as described above. […] WHBC cultures exposed to mitomycin C (MMC) (1.0 µg/mL in water) (Bristol, USA) for 2 h or to N-deacetyl-N-methylcolchicine in water (Demecolcine: Sigma-Aldrich) 0.02 µg/mL for 28 h were used as positive control cultures. After the treatment, the WHBC cultures were centrifuged (900 rpm, 10 min) and washed with 5 mL PBS. […] CytB has cytokinesis-block activity leading to the formation of binucleate cells. […] The fixed cell suspension was dropped on a clean glass slide and the slide was air-dried on a heating plate (60 °C). Air-dried slides were stained with 60 µg/mL acridine orange in Sörensen buffer (0.03 M KH2PO4, 0.03 M Na2HPO4) for 3s, then they were embedded in distilled water and covered with a coverslip. MN showing bright green fluorescence were analysed using a fluorescence microscope at 400 X magnification. MN were scored in 2,000 binucleated cells (BNC) for culture and the number of the micronucleate cells (MNC) in 2,000 BNC was determined. Cytotoxicity was measured using the cytokinesis-block proliferation index (CBPI) and the replication index (RI) which were calculated from 500 cells. The CBPI indicates the average number of nuclei per cell, and may be used to calculate cell proliferation. The RI indicates the relative number of cell cycles per cell during the period of exposure to cytoB in treated cultures compared to control cultures and can be used to calculate the % cytostasis. CBPI was calculated according to the formula: CBPI = [(No. mononucleate cells) + (2 x No. binucleate cells) + (3 x No. multinucleate cells)] / N, where N indicates the total number of cells scored. RI (%) was calculated according to the formula:
RI %=((No. binucleate cells) + (2 x No. multinucleate cells)) ÷ (Total number of cells)T/((No. binucleate cells) + (2 x No. multinucleate cells)) ÷ (Total number of cells)C x 100
where T indicates treated cultures and C control cultures
Cytotoxicity was evidenced in the occurrence of reduction in CBPI or RI of cultures treated by test substances when compared to control cultures. The measurement of cytotoxicity was used to select the concentrations of the test substance to be analysed for the presence of MN. […] However, it was adopted in this work as the maximum concentration in CBMN one that induced a proliferation inhibition not exceeding about 50% established by ICH S2 (R1) for lymphocyte cultures.
The chi-square test for trend was performed to analyse if the increase of MNC was concentration-related.[30]

Series [6] deals with Salmonella typhimurium. The following applies: cited from earlier work.
Where [7] appears, read: 10,000 μM, relative to solvent-control.

Some results are limits rather than exact numbers.

Take `O=C(Cn1ccnc1[N+](=O)[O-])NCc1ccccc1` [Benznidazole, benznidazole]: in series [1], the IC50 is 8.8 ± 1.1 µM. Besides, the serological cure in series [2] (adults with late chronic infection) is recorded as 5-20%. Also, in series [2] (adverse event), the digestive intolerance is given as 5-15%; the “general symptoms such as anorexia, asthenia, headache, and sleep disturbances” value was 40%; the skin rash was 29-50%. Also, the discontinuation of treatment in series [2] (due to adverse events) is given as 9-29%.
For `Cn1cnc([N+](=O)[O-])c1-n1cccn1` [Compound 6], the IC50 in series [1] was greater than 500 µM. The “percentage decrease in cell viability” value in series [3] (149 µM) turned out to be 0%; in series [3] (238 µM), 4.0%; in series [3] (382 µM), 0%; in series [3] (610 µM), 0%; in series [3] (1,562 µM) it was 0%; in series [3] (2,500 µM) it was 6%. For the same molecule, the “percentage decrease in cell viability” value in series [3] (4,000 µM) and in series [3] (6,400 µM) was 0% in each case. In addition, the lethality variation range in series [3] (149-6,400 µM) is given as 1-4%. Besides, the “result in the in vitro CA” value in series [4] is “positive”. The “concentration with significant (p < 0.05) DNA damage” value in series [4] (human, 2 h) is 6,400 µM. In addition, the “cells with class 1 DNA damage” value in series [4] (human, 2 h, 6400 µM) worked out at 10.5%. The CBPI came out at 1.184 in series [5] (150 µM, 4 h); 1.204 in series [5] (640 µM, 4 h); 1.134 in series [5] (1,600 µM, 4 h); 1.068 in series [5] (4,000 µM, 4 h); 1.036 in series [5] (10,000 µM, 4 h). Further, the NMNC/2000 binucleated cells in series [5] (150 µM, 4 h) is 32; in series [5] (640 µM, 4 h) it was 12; in series [5] (1,600 µM, 4 h), 16; in series [5] (4,000 µM, 4 h) it was 12. Further, the “RI (%)” value is on record as 148% in series [5] (150 µM, 4 h); 132% in series [5] (640 µM, 4 h); 114% in series [5] (1,600 µM, 4 h); 56% in series [5] (4,000 µM, 4 h); 24% in series [5] (10,000 µM, 4 h). Besides, the “maximum concentration used in MN analysis (inducing in the maximum 50% reduction of CBPI or RI)” value in series [5] (4 h, relative to solvent-control) is 4,000 μM. Besides, the “MN formation compared to solvent-control” value in series [5] (4 h) is recorded as “did not induce a significant increase in MN formation”. In addition, the “result in the CBMN” value in series [5] is given as “negative”. The “concentration with cytotoxic activity” value in series [6] (TA98) is 50 µg/mL. Also, the “concentration with mutagenicity in TA100” value in series [6] (TA100, absence and presence of S9 mixture, highest tested concentration) was 50 µg/mL. Also, in series [6] (TA100 and TA1535 strains), the “concentration range with cytotoxic activity” value was 1.0 to 50 µg/mL.
Turning to `Cn1cnc([N+](=O)[O-])c1Nc1nnc(C(F)(F)F)[nH]1` [Compound 5], in series [1], the IC50 is greater than 500 µM. Further, the “percentage decrease in cell viability” value in series [3] (149 µM), in series [3] (238 µM), in series [3] (382 µM), in series [3] (610 µM), in series [3] (1,562 µM) and in series [3] (2,500 µM) was 0% each time. Besides, the “percentage decrease in cell viability” value in series [3] (4,000 µM) stood at 2.0%; in series [3] (6,400 µM), 1.0%; in series [3] (10,000 µM) it was 2.0%. Further, the lethality variation range in series [3] (149-10,000 µM) was 1-4%. Further, in series [4], the “result in the in vitro CA” value is reported as “positive”. Besides, the “concentrations at which a significant (p < 0.05) genotoxic effect was observed” value in series [4] (human, 2 h) is given as greater than 610 µM. In addition, the CBPI was 1.310 in series [5] (150 µM, 4 h); 1.228 in series [5] (640 µM, 4 h); 1.192 in series [5] (1,600 µM, 4 h); 1.340 in series [5] (4,000 µM, 4 h); 1.152 in series [5] (10,000 µM, 4 h). Also, the NMNC/2000 binucleated cells in series [5] (150 µM, 4 h) was determined as 20; in series [5] (640 µM, 4 h), 8; in series [5] (1,600 µM, 4 h) it was 20; in series [5] (4,000 µM, 4 h) it was 24; in series [5] (10,000 µM, 4 h), 36. Also, the “RI (%)” value in series [5] (150 µM, 4 h) was 151%; in series [5] (640 µM, 4 h) it was 111%; in series [5] (1,600 µM, 4 h), 95%; in series [5] (4,000 µM, 4 h), 167%; in series [5] (10,000 µM, 4 h) it was 78%. The “reduction of CBPI” value in series [5] (setting [7]) worked out at 36%. Further, the “reduction of RI” value in series [5] (setting [7]) is 22%. Also, the “MN formation compared to solvent-control” value in series [5] (4 h) is “did not induce a significant increase in MN formation”. The “result in the CBMN” value in series [5] is “negative”.
